Test results taken from US20240207414A1, “DISULFIDE-BASED PRODRUG COMPOUND” (Ludwig-Maximilians-Universitat Munchen, priority 2021, published 2024).

Tests used:
A549 cells = assay: Cellular reduction assay P12-P16 (FIG. 6); assay type: cell-based, human; conditions: 10 μM or 40 μM, 1% vol DMSO, cells under ordinary conditions
Protocol: Assay Conditions: A549 cells were cultured under standard conditions (Gao, L. et al. Cell Chemical Biology 2021, 28, 1-14. https://doi.org/10.1016/j.chembiol.2020.11.007), left to adhere for 24 h, then compounds were added to 10 μM or 40 μM with 1% vol DMSO. Fluorescence timecourse measurements were acquired as in the chemoreductant assay, with all conditions in triplicates.
Experimental Results and Discussion: F(t) is the raw fluorescence intensity signal increase in arbitrary units with the same detection settings the probes releasing the same cargo. […] This trend is irrespective of the applied concentration in cells and cellular increase is constant over time. This indicates, that P13-P16 are activated more selectively by specific enzymatic cascades (as e.g. Trx/TrxR), whereas P12 may be activated more unspecifically. Thus, compounds of the invention either have the possibility of being useful by giving selective cargo release in pathologically growing cells or cells under abnormal conditions (P13-P16), or offer novel opportunities of cellular delivery of appended cargoes with optimal response kinetics (P12).

HeLa cells = assay: In vitro cell viability assay P10 (resazurin); assay type: cell-based; conditions: Homo sapiens, 48 h, read-out: IC50 antiproliferation / cell viability
Protocol: Assay Conditions: Cells were cultured under standard conditions (Gao, L. et al. Cell Chemical Biology 2021, 28, 1-14. https://doi.org/10.1016/j.chembiol.2020.11.007), left to adhere for 24 h, then P10 was added from DMSO stock solution and adjusted to 1% vol DMSO. Cells were incubated under standard conditions for 48 h, then 0.20 volume equivalents of a solution of resazurin in PBS (0.15 mg/mL) were added and incubated for 3 hours, then fluorescence (ex 544 nm, em 590 nm) was detected on a fluorescence platereader. Cell viability (%) is calculated relative to a control experiment with no P10 added, from the fluorescence values.

[1] = tested on: 4T1 Balb/c mouse breast cancer cell line, orthotopic tumor; assay: In vivo mouse tumor model assay P10
Description: Assay Conditions and Data Representation: Immunocompetent wildtype Balb/c mice were inoculated with 4T1 Balb/c mouse breast cancer cell line orthotopically in the mammary fat pad (2×10^5 cells) and tumor growth was monitored by caliper measurement. The day when all tumors had reached ca. 150 mm^3 was defined as Day 0; on this day the mice were randomised by tumor size into groups of minimum size 5 animals (mean tumor size ca. 200 mm^3), and treated. Treatments were chosen from 0.9% NaCl (“untreated”), the vascular disrupting agent combretastatin A-4 phosphate (CA4P) at 30 mg/kg administered in 100 μL NaCl (“VDA”), compound of the invention P10 at 4 mg/kg administered in 30 μL DMSO (“P10”), or a combination regime involving treatment with VDA and then 6 hours later with P10 (“VDA+P10”). All treatments were administered intraperitoneally (i.p.). CA4P was re-applied to groups “VDA” and […] once at day 7; no P10 treatment was re-applied to either “P10” or “VDA+P10” groups. Tumor volumes were measured as assay readout.

`COc1ccc2c(c1)Oc1cc(OC(=O)N3CCN[C@@H]4CSSC[C@H]43)ccc1C21OC(=O)c2ccccc21` (mixture of isomers) [Compound P12, 3′-methoxy-3-oxo-3H-spiro[isobenzofuran-1,9′-xanthen]-6′-yl-trans-hexahydro-[1,2]dithiino[4,5-b]pyrazine-1(2H)-carboxylate] was tested, and the “cargo release / activation inside cells (raw fluorescence F(t))” value (A549 cells) was “substantially releases its cargo inside cells cultured under ordinary conditions”.

`O=C(c1cc2cc(OCCCN3CCC3)ccc2[nH]1)N1C[C@@H](CCl)c2c1cc(OC(=O)N1CCC[C@@H]3CSSC[C@@H]31)c1ccccc21` (racemic) [Compound P10, (S)-3-(5-(3-(azetidin-1-yl)propoxy)-1H-indole-2-carbonyl)-1-(chloromethyl)-2,3-dihydro-1H-benzo[e]indol-5-yl (cis)-hexahydro-[1,2]dithiino[4,5-b]pyridine-1(2H)-carboxylate] was tested, and the IC50 (HeLa cells) was about 200 nM, the “tumor growth (tumor volume), combination with VDA” value ([1]; CA4P (VDA) 30 mg/kg i.p., then 6 hours later P10 4 mg/kg i.p.) was “still more significantly slows tumor growth” and the “primary tumor progression (tumor volume)” value ([1]; single treatment 4 mg/kg i.p., Balb/c mice, 4T1 tumor) was “significantly slows primary tumor progression”.
